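A five-concentration, 48-hour dose response in 96-well plates underlies each endpoint, interpolated linearly between surrounding concentrations. TGI denotes the concentration required for complete inhibition of growth.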
Experiments:
Test in all cases: DTP human tumour cell line panel, 48 h
786-0 renal = tested on: 786-0 renal
A498 renal = tested on: A498 renal
A549 NSCLC = tested on: A549 NSCLC
ACHN renal = tested on: ACHN renal
BT-549 breast = tested on: BT-549 breast
CAKI-1 renal = tested on: CAKI-1 renal
CCRF-CEM leukemia = tested on: CCRF-CEM leukemia
COLO 205 colon = tested on: COLO 205 colon
DU-145 prostate = tested on: DU-145 prostate
EKVX NSCLC = tested on: EKVX NSCLC
HCC-2998 colon = tested on: HCC-2998 colon
HCT-116 colon = tested on: HCT-116 colon
HCT-15 colon = tested on: HCT-15 colon
HL-60(TB) leukemia = tested on: HL-60(TB) leukemia
HOP-62 NSCLC = tested on: HOP-62 NSCLC
HOP-92 NSCLC = tested on: HOP-92 NSCLC
HS 578T breast = tested on: HS 578T breast
HT29 colon = tested on: HT29 colon
IGROV1 ovarian = tested on: IGROV1 ovarian
K-562 leukemia = tested on: K-562 leukemia
KM12 colon = tested on: KM12 colon
LOX IMVI melanoma = tested on: LOX IMVI melanoma
M14 melanoma = tested on: M14 melanoma
MALME-3M melanoma = tested on: MALME-3M melanoma
MCF7 breast = tested on: MCF7 breast
MDA-MB-231 breast = tested on: MDA-MB-231 breast
MDA-MB-435 = tested on: MDA-MB-435
MDA-N = tested on: MDA-N
MOLT-4 leukemia = tested on: MOLT-4 leukemia
NCI-H226 lung = tested on: NCI-H226 lung
NCI-H23 lung = tested on: NCI-H23 lung
NCI-H460 lung = tested on: NCI-H460 lung
NCI-H522 lung = tested on: NCI-H522 lung
NCI/ADR-RES ovarian = tested on: NCI/ADR-RES ovarian
OVCAR-3 ovarian = tested on: OVCAR-3 ovarian
OVCAR-4 ovarian = tested on: OVCAR-4 ovarian
OVCAR-5 ovarian = tested on: OVCAR-5 ovarian
OVCAR-8 ovarian = tested on: OVCAR-8 ovarian
PC-3 prostate = tested on: PC-3 prostate
RPMI-8226 leukemia = tested on: RPMI-8226 leukemia
RXF 393 renal = tested on: RXF 393 renal
SF-268 CNS = tested on: SF-268 CNS
SF-295 CNS = tested on: SF-295 CNS
SF-539 CNS = tested on: SF-539 CNS
SK-MEL-2 melanoma = tested on: SK-MEL-2 melanoma
SK-MEL-28 melanoma = tested on: SK-MEL-28 melanoma
SK-MEL-5 melanoma = tested on: SK-MEL-5 melanoma
SK-OV-3 ovarian = tested on: SK-OV-3 ovarian
SN12C renal = tested on: SN12C renal
SNB-19 CNS = tested on: SNB-19 CNS
SNB-75 CNS = tested on: SNB-75 CNS
SR leukemia = tested on: SR leukemia
SW-620 colon = tested on: SW-620 colon
T-47D breast = tested on: T-47D breast
TK-10 renal = tested on: TK-10 renal
U251 CNS = tested on: U251 CNS
UACC-257 melanoma = tested on: UACC-257 melanoma
UACC-62 melanoma = tested on: UACC-62 melanoma
UO-31 renal = tested on: UO-31 renal

Measured: TGI

Cc1cc2oc(C)c(S(=O)(=O)NC(=O)Nc3ccc(Cl)cc3)c(=O)c2c(=O)o1
> 100 µM: all assays above

Cc1cc(N2CCCC2)c([N+](=O)[O-])cc1[N+](=O)[O-]
not listed: HOP-62 NSCLC | OVCAR-5 ovarian | TK-10 renal
> 100 µM: all other assays above

Source: PubChem BioAssay (NCI)
